Experiments:
Type in all cases: physicochemical
[1] = Thermal stability of dyes (mass loss measured by TGA); settings: dye itself
Method: (1) Thermal Stability of Dyes (Mass Loss Measured by TGA):
The thermal stability of dye itself was determined by the mass loss of dye measured by TGA under air atmosphere at 230° C. for 1 hour. This evaluation reflects chemical stability of the dye itself.

[2] = Thermal stability of films (chromaticity difference ΔEab after baking); settings: for ΔEab after baking at 230° C. for 1 h: film of dye in alkaline soluble acrylic resin on glass, hard bake 230° C., air, smaller value = better heat resistance
Method: 0.15 g of Dye 1, 1.35 g PGMEA and 1.00 g of alkaline soluble acrylic resin solution (MIPHOTO RPR4022, supplied from Miwan Commercial Co., Ltd., 25 to 35% of solid content in (methyl 3-methoxypropionate)) were mixed and stirred for overnight at room temperature using a shaker. The solution was filtered with a 0.45 μm Acrodisc CR PTFE filter to get rid of big particles. Then the filtered solution was spin coated onto a clean glass substrate with 400 rpm spin speed for 18 seconds. The obtained film was first dried at 90° C. under air atmosphere for 30 minutes, and then hard baked at 230° C. under air atmosphere for 1 hour. The CIE values (xyY values and lab values) and the UV-Vis were measured before and after the hard bake.
The obtained dry film was further baked at 230° C. under air for 1 hour to evaluate thermal stability of the film. Optical performance after baking (ΔEab value) was 1.8, and the one of after further baking was 2.7. A smaller ΔEab value indicates better heat resistance.
(4) Thermal Stability of Films (Chromaticity):
The wet film after spin coating is dried in oven at 90° C. for 30 minutes and then soft baked at 150° C. for 15 minutes. The chromaticity coordinates (L, a, b) are recorded with UltraScan Pro (Hunterlab) colorimeter. D65/10 light source is used and results are based on CIE Lab coordinates. After that the film is hard baked at target temperature (230° C.) for 1 hour and the new chromaticity coordinates (L′, a′, b′) are recorded with the method above. The thermal stability of a film is indicated by the difference of chromaticity coordinate after baking at 230° C. represented by the following formula;
ΔE=√{square root over ((L−L′)^2+(a−a′)^2+(b−b′)^2)}

[3] = Solubility of dye in PGMEA; settings: solvent PGMEA (propylene glycol monomethyl ether acetate)

| Compound | weight loss at 230° C. for 1 h in air from TGA [1] | ΔEab after baking at 230° C. for 1 h [2] | Solubility in PGMEA (wt %) [3] | Optical performance after baking (ΔEab value) ([2]; Dye 1 film, after baking) | ΔEab value after further baking ([2]; Dye 1 film, further baked at 230° C. under air for 1 hour) |
| --- | --- | --- | --- | --- | --- |
| Cc1cc(C)c(Nc2ccc(Nc3c(C)cc(OCCC[Si](C)(C)O[Si](C)(C)O[Si](C)(C)CCCOc4cc(C)c(Nc5ccc(Nc6c(C)cc(C)cc6C)c6c5C(=O)c5ccccc5C6=O)c(C)c4)cc3C)c3c2C(=O)c2ccccc2C3=O)c(C)c1 [Dye 2] | 2.49% | – | – | – | – |
| Cc1cc(C)c(Nc2ccc(Nc3c(C)cc(OCCC[Si](C)(C)O[Si](C)(C)O[Si](C)(C)CCCOc4cc(C)c(Nc5ccc(Nc6c(C)cc(C)cc6C)c6c5C(=O)c5ccccc5C6=O)c(C)c4)cc3C)c3c2C(=O)c2ccccc2C3=O)c(C)c1 [Dye 3] | – | 1.5 | 9.7 wt % | – | – |
| CC(C)Nc1ccc(NC(C)C)c2c1C(=O)c1ccccc1C2=O [Solvent Blue 36, reference compound] | – | 33 (color almost | 1.92 wt % | – | – |
| CC(C[Si](C)(O[Si](C)(C)C)O[Si](C)(C)C)C(=O)OCCNc1ccc(NCCOC(=O)C(C)C[Si](C)(O[Si](C)(C)C)O[Si](C)(C)C)c2c1C(=O)c1ccccc1C2=O (centres unmarked) [(QS), reference compound] | – | 24.5 (color changed | ~4.6 wt % | – | – |
| Cc1cc(OCCC[Si](C)(O[Si](C)(C)C)O[Si](C)(C)C)cc(C)c1Nc1ccc(Nc2c(C)cc(OCCC[Si](C)(O[Si](C)(C)C)O[Si](C)(C)C)cc2C)c2c1C(=O)c1ccccc1C2=O [Dye 1] | 7.74% | 3.2 | 17 wt % | 1.8 | 2.7 |
| Cc1cc(C)c(Nc2ccc(Nc3c(C)cc(OCCC[Si](C)(O[Si](C)(C)C)O[Si](C)(CCCOc4cc(C)c(Nc5ccc(Nc6c(C)cc(C)cc6C)c6c5C(=O)c5ccccc5C6=O)c(C)c4)O[Si](C)(C)C)cc3C)c3c2C(=O)c2ccccc2C3=O)c(C)c1 (centres unmarked) [Dye 2] | 6.79% | 3.6 | 11.0 wt % | – | – |
| Cc1cc(C)c(Nc2ccc(Nc3c(C)cc(C)cc3C)c3c2C(=O)c2ccccc2C3=O)c(C)c1 [Solvent Blue 104, 1,4-bis(mesitylamino)anthraquinone, reference compound] | – | 7.0 | 0.6 wt % | – | – |
